Data taken from patent US4009206A, “N-(substituted phenyl and benzyl)abietamides” (priority 1974, dated 1977).

Tested on: cholesterol in blood
Assay: Reduction of blood cholesterol in rats fed a 1% cholesterol / 0.25% sodium cholate diet
Type: in vivo, male rats
Conditions: 3 days, control (cholesterol-administered) group = 0, normal group = 100, * 5%, ** 1% significance
Procedure: A completely synthetic diet containing 1% of cholesterol, 0.25% of sodium cholate and 0.0003%, 0.003%, and 0.03% of the test compound is given to a group of 6 male rats having a body weight of about 50 g consecutively for 3 days, and the rats are fasted overnight. Then, the rats are decapitated and blood is collected to determine the cholesterol concentration in blood. The concentration of cholesterol in blood is measured with Technicon Autoanalyzer(Technicon Laboratory: Method File N-24a) Obtained results are shown in Table 1.
Each value shown in the Table is a relative value determined based on the supposition that the value of the control group (the cholesterol-administered group) is 0 and the value of the normal group (the non-cholesterol-administered group) is 100.

Molecule	% Inhibition (cholesterol in blood) (Dose in Diet 0.0003%) [%]	% Inhibition (cholesterol in blood) (Dose in Diet 0.003%) [%]	% Inhibition (cholesterol in blood) (Dose in Diet 0.03%) [%]
Cc1cccc(C)c1NC(=O)C1(C)CCCC2(C)C3=C(CCC12)CC(C(C)C)CC3 (centres unmarked) [N-(2,6-dimethylphenyl)-Δ^8-dihydroabietamide]	33	76	102
CC(C)C1CCC2=C(CCC3C(C)(C(=O)NCc4ccc(Cl)cc4)CCCC23C)C1 (centres unmarked) [N-(4-chlorobenzyl)-Δ^8-dihydroabietamide]	–	9	30
N-(m-bromophenyl)-dihydroabietamide	7	23	60
